Assay results published in paper PMC3004370, “PI3Kα Inhibitors That Inhibit Metastasis” (Oncotarget, 2010).

Legend:
p110α = target: T1, p110α (Homo sapiens, UniProt P42336); experiment: Biochemical PI3K inhibition assay, p110α
T1 construct: His-tag; made in house; host or cells: Sf9 insect cells (baculovirus)
Method: PIK3CD was generously provided by Novartis Pharmaceuticals. […] Sf9 cells were lysed in a buffer containing 50 mM sodium phosphate, pH 8.0, 400 mM NaCl, 5% glycerol, 1% Triton X-100, 10 mM 2-mercaptoethanol, 1 mM orthovanadate, 10 mM imidazole, and sonicated on ice for 1 minute. Proteins were purified by adding Ni-NTA Superflow beads (Qiagen, Valencia, CA, USA) to the lysate and subsequent rolling for 30 min at 4°C. Beads were washed twice with 50 mM phosphate buffer, pH 8.0, 0.5 M NaCl, 50 mM Imidazole, 2 mM DTT and eluted in the same buffer but with 200 mM imidazole. Purified PI3K's were mixed 1:1 with glycerol and stored at -20°C.
J-series inhibitors were dissolved, serial diluted in DMSO and deposited into 96 well plates at a final DMSO concentration of 1%. We used a novel assay to determine their potency and selectivity. […] Reactions were timed after the addition of 10 μM ATP with 40 μCi/ml γ-32P-ATP (PerkinElmer, Waltham, MA, USA) and 2 mM MgCl2 (all final concentrations). The reactions were terminated after two hours by the addition of 2 N HCl and the lipids extracted with 1:1 MetOH/Chloroform. Radio-labeled phosphatidyl-inositol-3-phosphate in the extracted organic fraction was quantified after the addition of Microscint O (PerkinElmer) using a TopCount 96 well plate scintillation counter (PerkinElmer). IC50 concentrations and inhibition curves were calculated using Prism 5 (GraphPad Software, La Jolla, CA).

p110γ = target: T2, p110γ (Homo sapiens, UniProt P48736); experiment: Biochemical PI3K inhibition assay, p110γ
T2 construct: His-tag; made in house; host or cells: Sf9 insect cells (baculovirus)
T2 sequence (P48736 whole entry): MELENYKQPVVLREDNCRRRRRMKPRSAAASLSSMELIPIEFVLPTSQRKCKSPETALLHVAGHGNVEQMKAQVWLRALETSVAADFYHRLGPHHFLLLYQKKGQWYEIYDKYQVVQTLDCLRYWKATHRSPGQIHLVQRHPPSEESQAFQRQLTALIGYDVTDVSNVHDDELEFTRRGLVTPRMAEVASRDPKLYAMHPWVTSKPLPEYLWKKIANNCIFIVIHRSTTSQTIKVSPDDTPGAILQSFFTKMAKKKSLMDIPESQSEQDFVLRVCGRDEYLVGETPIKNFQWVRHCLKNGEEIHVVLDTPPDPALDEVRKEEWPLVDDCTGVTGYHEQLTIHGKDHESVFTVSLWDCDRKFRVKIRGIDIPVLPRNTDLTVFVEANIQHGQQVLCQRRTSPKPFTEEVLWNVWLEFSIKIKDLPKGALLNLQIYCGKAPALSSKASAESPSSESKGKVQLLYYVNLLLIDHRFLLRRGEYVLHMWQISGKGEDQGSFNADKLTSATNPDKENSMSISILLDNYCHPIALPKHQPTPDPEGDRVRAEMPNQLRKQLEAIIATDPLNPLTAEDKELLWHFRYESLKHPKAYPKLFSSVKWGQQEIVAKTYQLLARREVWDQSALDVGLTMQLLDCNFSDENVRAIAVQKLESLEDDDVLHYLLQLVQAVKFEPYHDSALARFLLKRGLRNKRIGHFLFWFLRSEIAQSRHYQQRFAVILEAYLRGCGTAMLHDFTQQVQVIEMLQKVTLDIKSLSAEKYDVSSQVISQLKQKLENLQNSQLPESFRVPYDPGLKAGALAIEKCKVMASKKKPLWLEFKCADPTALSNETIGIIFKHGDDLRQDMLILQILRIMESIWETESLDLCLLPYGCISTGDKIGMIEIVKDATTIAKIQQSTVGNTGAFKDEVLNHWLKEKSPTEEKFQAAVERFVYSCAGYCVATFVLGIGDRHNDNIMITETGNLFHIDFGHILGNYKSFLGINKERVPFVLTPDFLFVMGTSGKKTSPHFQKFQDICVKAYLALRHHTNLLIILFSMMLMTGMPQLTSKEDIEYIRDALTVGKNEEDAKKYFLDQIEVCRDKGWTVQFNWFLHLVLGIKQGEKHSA
Text: (§1) cDNA clones of PIK3CA, PIK3CB and PIK3CG were obtained from Origene (Rockville, MD, USA). PIK3CD was generously provided by Novartis Pharmaceuticals. The cDNA clones were sub-cloned into pFastBac His-Tag (Invitrogen, Carlsbad, CA, USA) and baculovirus clones were generated by the Bac-to-Bac expression system (Invitrogen). p110α, p110β and p110δ were co-expressed in Sf9 insect cells (Invitrogen) with a nSH2-iSH2 fragment of the regulatory subunit p85 comprising AA residues 322 to 600 [4]. p110γ was expressed without a regulatory subunit. Sf9 cells were lysed in a buffer containing 50 mM sodium phosphate, pH 8.0, 400 mM NaCl, 5% glycerol, 1% Triton X-100, 10 mM 2-mercaptoethanol, 1 mM orthovanadate, 10 mM imidazole, and sonicated on ice for 1 minute. Proteins were purified by adding Ni-NTA Superflow beads (Qiagen, Valencia, CA, USA) to the lysate and subsequent rolling for 30 min at 4°C. Beads were washed twice with 50 mM phosphate buffer, pH 8.0, 0.5 M NaCl, 50 mM Imidazole, 2 mM DTT and eluted in the same buffer but with 200 mM imidazole. Purified PI3K's were mixed 1:1 with glycerol and stored at -20°C.
(§2) J-series inhibitors were dissolved, serial diluted in DMSO and deposited into 96 well plates at a final DMSO concentration of 1%. We used a novel assay to determine their potency and selectivity. In brief, micelles of 2.5 μg L-a-Phosphatidylinositol and 2.5 μg 1,2-Diacyl-sn-glycero-3-phospho-L-serine were formed by sonication, mixed with the individual PI3K isoforms and added to the drug dilutions in a reaction buffer containing 10 mM HEPES, 25 mM NaCl, 0.125 μg/μl BSA, and 2 mM BME (final concentrations). Reactions were timed after the addition of 10 μM ATP with 40 μCi/ml γ-32P-ATP (PerkinElmer, Waltham, MA, USA) and 2 mM MgCl2 (all final concentrations). The reactions were terminated after two hours by the addition of 2 N HCl and the lipids extracted with 1:1 MetOH/Chloroform. Radio-labeled phosphatidyl-inositol-3-phosphate in the extracted organic fraction was quantified after the addition of Microscint O (PerkinElmer) using a TopCount 96 well plate scintillation counter (PerkinElmer). IC50 concentrations and inhibition curves were calculated using Prism 5 (GraphPad Software, La Jolla, CA).

p110β = target: T3, p110β (Homo sapiens, UniProt P42338); experiment: Biochemical PI3K inhibition assay, p110β
T3 construct: His-tag; made in house; host or cells: Sf9 insect cells (baculovirus)
T3 sequence (P42338 whole entry): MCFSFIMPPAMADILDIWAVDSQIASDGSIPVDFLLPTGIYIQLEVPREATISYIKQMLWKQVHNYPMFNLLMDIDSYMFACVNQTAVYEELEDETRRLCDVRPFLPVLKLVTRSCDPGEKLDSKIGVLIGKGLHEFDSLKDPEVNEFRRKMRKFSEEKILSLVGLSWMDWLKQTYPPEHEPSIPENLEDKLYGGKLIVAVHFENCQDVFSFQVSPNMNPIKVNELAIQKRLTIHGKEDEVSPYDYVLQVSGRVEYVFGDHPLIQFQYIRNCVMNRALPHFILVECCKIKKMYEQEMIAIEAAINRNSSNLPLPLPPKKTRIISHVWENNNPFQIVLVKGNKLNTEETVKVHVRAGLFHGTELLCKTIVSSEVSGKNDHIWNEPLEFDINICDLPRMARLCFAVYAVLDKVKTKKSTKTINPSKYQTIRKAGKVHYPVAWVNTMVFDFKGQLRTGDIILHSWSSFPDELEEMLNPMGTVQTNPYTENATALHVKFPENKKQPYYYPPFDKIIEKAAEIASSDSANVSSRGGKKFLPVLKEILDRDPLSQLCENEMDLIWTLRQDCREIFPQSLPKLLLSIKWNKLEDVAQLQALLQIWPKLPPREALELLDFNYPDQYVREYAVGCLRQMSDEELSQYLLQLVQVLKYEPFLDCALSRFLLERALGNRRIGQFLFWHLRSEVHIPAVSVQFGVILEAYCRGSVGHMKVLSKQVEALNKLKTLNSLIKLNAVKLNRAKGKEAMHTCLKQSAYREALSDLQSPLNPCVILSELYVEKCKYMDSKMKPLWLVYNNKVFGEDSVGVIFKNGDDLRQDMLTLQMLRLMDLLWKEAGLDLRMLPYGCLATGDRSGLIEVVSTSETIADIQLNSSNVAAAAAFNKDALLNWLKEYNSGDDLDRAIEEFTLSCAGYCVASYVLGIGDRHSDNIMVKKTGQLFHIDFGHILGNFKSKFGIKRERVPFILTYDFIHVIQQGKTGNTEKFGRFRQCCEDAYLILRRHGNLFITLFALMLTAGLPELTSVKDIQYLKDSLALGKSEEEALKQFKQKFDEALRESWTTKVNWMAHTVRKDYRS
T3 sequence (P27986 322-600 partner limits assumed): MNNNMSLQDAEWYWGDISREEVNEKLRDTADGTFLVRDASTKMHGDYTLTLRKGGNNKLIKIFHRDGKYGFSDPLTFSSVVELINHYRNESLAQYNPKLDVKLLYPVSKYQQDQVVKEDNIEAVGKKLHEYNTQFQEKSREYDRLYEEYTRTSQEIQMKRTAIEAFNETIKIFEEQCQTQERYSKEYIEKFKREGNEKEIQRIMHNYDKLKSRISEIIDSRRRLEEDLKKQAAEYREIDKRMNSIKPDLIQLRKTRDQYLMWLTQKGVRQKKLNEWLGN
Text: as §1, §2

p110δ = target: T4, p110δ (Homo sapiens, UniProt O00329); experiment: Biochemical PI3K inhibition assay, p110δ; settings: 10 μM ATP, two hours
T4 construct: His-tag; made in house; host or cells: Sf9 insect cells (baculovirus)
T4 sequence (O00329 whole entry): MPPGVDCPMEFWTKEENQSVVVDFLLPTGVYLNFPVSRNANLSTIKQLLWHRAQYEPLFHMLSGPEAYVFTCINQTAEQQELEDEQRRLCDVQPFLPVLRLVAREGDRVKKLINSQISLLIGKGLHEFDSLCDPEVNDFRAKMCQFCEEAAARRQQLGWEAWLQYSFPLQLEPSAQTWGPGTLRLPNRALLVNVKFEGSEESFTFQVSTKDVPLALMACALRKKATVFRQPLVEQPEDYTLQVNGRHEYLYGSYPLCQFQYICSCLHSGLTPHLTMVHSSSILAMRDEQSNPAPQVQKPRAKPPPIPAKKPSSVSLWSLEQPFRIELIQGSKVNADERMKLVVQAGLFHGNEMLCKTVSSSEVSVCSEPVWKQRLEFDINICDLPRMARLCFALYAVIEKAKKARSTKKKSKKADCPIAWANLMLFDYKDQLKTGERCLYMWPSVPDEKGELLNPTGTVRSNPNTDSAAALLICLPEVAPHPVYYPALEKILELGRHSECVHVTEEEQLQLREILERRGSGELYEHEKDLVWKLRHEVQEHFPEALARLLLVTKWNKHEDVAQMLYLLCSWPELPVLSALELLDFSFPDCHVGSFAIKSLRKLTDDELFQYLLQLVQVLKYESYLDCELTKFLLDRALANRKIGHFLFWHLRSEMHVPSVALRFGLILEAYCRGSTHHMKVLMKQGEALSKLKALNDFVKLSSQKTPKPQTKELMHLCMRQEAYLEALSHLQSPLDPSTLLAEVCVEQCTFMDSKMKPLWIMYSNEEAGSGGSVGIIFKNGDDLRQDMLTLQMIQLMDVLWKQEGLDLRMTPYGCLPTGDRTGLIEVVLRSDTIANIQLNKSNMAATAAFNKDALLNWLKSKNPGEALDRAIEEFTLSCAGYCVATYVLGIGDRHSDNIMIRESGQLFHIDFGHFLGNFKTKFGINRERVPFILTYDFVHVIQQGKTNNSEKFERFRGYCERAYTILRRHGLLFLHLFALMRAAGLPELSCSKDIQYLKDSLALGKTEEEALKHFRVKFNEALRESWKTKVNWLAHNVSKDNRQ
T4 sequence (P27986 322-600 partner limits assumed): as the sequence (P27986 322-600 partner limits assumed) above
Text: as §1, §2

[1] = system: Intraspleenic-injected HCT116 liver and lung metastases; experiment: Intraspleenic tumor model (metastasis); assay type: in vivo, mice; settings: 150 mg/kg IP daily, three weeks
Method: Intraspleenic-injected HCT116 liver and lung metastases in NOD.Cg-Prkdcscid Il2rgtm1Wjl/SzJ mice (Jackson Laboratory, Bar Harbor, ME, USA) were generated as described in Erikson et. al.. J-series compounds were solubilized in 1:1 DMSO/Cremophor EL (Sigma-Aldrich) and diluted 2.3-fold in water to a final concentration of 7.5 mg/ml. 400 μl of this formulation (150 mg/kg) was injected intraperitoneally (IP) once a day for three weeks, beginning the third day post-surgery. Mice were sacrificed after the treatment and the liver, lungs, and spleen sampled. DNA was extracted from organs with the DNeasy Blood & Tissue Kit (Qiagen). The qPCR assay used for quantification of human DNA in mouse organs has been described. All mouse protocols were designed in accordance with the NIH Guide for the Care and Use of Laboratory Animals and approved by the Institutional Animal Care and Use Committee.

mTOR = target: T5, mTOR (Homo sapiens, UniProt P42345); experiment: Panel of 273 kinases, mTOR; assay type: biochemical
T5 construct: purchased Millipore (KinaseProfiler service)
Method: The compounds were also tested for their capacity to inhibit two common mutant forms of PI3Kα – E545K and H1047R [2, 33]. None of the compounds discriminated between the wild-type (wt) and mutant forms of the enzyme (data not shown). Finally, we also tested one of the compounds (J124, chosen for reasons discussed later) against a panel of 273 kinases.

CDK5/p35 = target: T6, CDK5/p35 (Homo sapiens, UniProt Q00535); experiment: Millipore KinaseProfiler; assay type: biochemical; settings: read-out: % of control
T6 construct: purchased Millipore (KinaseProfiler service)
Text: (§3) Supplement oncotarget-01-339-s001.doc, table 1: Supplementary Table 1. Millipore KinaseProfiler excerpt | column: % of control

PKCθ = target: T7, PKCθ (Homo sapiens, UniProt Q04759); experiment: Millipore KinaseProfiler; assay type: biochemical; settings: read-out: % of control
T7 construct: purchased Millipore (KinaseProfiler service)
Text: as §3

NEK2 = target: T8, NEK2 (Homo sapiens, UniProt P51955); experiment: Millipore KinaseProfiler; assay type: biochemical; settings: read-out: % of control
T8 construct: purchased Millipore (KinaseProfiler service)
T8 sequence (P51955 whole entry): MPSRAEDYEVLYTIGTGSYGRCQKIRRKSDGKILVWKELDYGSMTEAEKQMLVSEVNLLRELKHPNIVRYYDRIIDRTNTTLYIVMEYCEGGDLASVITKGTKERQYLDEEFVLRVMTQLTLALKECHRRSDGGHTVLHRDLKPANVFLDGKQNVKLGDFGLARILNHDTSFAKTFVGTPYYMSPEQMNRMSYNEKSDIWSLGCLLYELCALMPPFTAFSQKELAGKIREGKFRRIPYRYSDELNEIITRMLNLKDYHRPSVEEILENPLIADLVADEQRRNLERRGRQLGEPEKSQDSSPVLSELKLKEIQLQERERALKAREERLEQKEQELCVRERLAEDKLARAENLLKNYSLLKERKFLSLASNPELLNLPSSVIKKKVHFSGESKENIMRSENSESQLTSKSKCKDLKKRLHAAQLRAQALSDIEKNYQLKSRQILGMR
Text: as §3

ACK1 = target: T9, ACK1 (Homo sapiens, UniProt Q07912); experiment: Millipore KinaseProfiler; assay type: biochemical; settings: read-out: % of control
T9 construct: purchased Millipore (KinaseProfiler service)
Text: as §3

Ret = target: T10, Ret (Homo sapiens, UniProt P07949); experiment: Millipore KinaseProfiler; assay type: biochemical; settings: read-out: % of control
T10 construct: purchased Millipore (KinaseProfiler service)
Text: as §3

T1 sequence (P42336 whole entry): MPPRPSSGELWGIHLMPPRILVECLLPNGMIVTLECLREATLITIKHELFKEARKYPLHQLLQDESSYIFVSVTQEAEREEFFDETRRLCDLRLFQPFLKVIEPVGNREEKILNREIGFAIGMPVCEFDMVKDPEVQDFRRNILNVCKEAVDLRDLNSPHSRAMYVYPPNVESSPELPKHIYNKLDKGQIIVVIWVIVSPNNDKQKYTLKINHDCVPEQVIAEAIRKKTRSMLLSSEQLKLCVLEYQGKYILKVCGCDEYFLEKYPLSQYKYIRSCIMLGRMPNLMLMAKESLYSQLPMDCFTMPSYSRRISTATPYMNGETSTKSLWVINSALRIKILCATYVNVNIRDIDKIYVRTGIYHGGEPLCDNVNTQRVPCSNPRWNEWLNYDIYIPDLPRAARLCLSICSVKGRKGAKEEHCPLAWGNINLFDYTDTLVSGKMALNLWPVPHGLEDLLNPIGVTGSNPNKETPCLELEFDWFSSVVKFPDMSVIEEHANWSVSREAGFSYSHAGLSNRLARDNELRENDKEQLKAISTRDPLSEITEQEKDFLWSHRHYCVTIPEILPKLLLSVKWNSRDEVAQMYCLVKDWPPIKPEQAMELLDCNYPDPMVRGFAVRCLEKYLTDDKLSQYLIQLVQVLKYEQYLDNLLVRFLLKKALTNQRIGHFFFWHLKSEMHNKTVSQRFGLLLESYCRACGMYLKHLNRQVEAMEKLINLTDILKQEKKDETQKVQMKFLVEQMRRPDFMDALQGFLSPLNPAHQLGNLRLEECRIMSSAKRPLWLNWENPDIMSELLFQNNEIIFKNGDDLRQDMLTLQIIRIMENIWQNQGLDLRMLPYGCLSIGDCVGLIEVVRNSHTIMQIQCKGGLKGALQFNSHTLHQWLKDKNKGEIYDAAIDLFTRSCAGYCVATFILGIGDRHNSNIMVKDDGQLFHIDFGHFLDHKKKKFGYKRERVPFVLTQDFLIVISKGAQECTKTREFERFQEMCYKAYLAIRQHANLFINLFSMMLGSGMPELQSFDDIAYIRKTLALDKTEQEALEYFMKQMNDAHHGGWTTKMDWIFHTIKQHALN
T1 sequence (P27986 322-600 partner limits assumed): as the sequence (P27986 322-600 partner limits assumed) above

IC50 (p110α; 10 μM ATP, two hours): 11 nM
increase of inhibitory activity for PI3Kα (p110α; compared to J32): 1.4 fold
IC50 (p110γ; 10 μM ATP, two hours, no regulatory subunit): 380 nM
selectivity against PI3Kγ (p110γ; relative to PI3Kα): > 30 fold
IC50 (p110β; 10 μM ATP, two hours): 270 nM
selectivity against PI3Kβ (p110β; relative to PI3Kα): > 20 fold
IC50 (p110δ): 160 nM
inhibition of mTOR with an IC50 of 11 nM or lower (mTOR): not mTOR
remaining activity at 0.011 µM (CDK5/p35): 37%
remaining activity at 0.011 µM (PKCθ): 35%
remaining activity at 0.011 µM (NEK2): 42%
remaining activity at 0.011 µM (ACK1): 30%
remaining activity at 0.011 µM (Ret): 49%
Compound: CCN(/N=C/c1cnc2ccc(Br)cn12)S(=O)(=O)c1cc([N+](=O)[O-])c(NC(=O)C(F)(F)F)cc1C [J124]
metastatic lesions in the lungs [1]: no lesions
metastatic foci in the liver (histopathology) ([1]; compared to vehicle): few, if any, metastatic foci
reduction in primary tumor burden in the spleen (real-time PCR) ([1]; compared to vehicle): ~ 50%
reduction of metastatic liver burden (real-time PCR) ([1]; compared to vehicle): 13 fold
